# Measurements taken from the METLIN SMRT retention time set (Domingo-Almenara et al. 2019).
# Test: gradient 5% acetonitrile 3 min, to 50% in 2 min, to 85% in 15 min, held 3 min, 100 µL/min
# Details: column: Zorbax Extend-C18 2.1 x 50 mm; eluents: water / acetonitrile, 0.1% formic acid
# Method in brief: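 Each retention time is based on an adduct peak selected computationally and verified by manual inspection. Measurements used HPLC–quadrupole time-of-flight mass spectrometry in positive and negative ionization mode on mixtures of ~100 pure standards. Chromatography ran on a Zorbax Extend-C18 column (2.1 × 50 mm, 1.8 μm) at 100 μL/min with water and acetonitrile, each containing 0.1% formic acid, and dead and dwell volumes of 40 μL and 900 μL.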
row,Structure (SMILES),RP-LC retention time [s]
1,Cc1ccc(CNC(=O)NC2CCN(C(=O)N3C[C@H]4C[C@H](C3)[C@H]3CCCC(=O)N3C4)CC2)cc1,681
2,Cc1ccnc(N2CCCC(C(=O)NCC3CCN(Cc4ccccc4C)CC3)C2)n1 (configuration not stated),596
3,CCc1ccc(C(=O)Nc2cnn(CC)c(=O)c2N2CCOCC2)cc1,1070
4,c1ccc(CCCN2CCN(CCOC(c3ccccc3)c3ccccc3)CC2)cc1,874
5,CCOC(=O)C1CCCN(CC(O)COc2ccccc2C(C)=O)C1 (configuration not stated),556
6,CCc1nccn1Cc1noc(-c2cccs2)n1,593
7,COc1cc(Cl)c(NC(=O)C2CCN(S(=O)(=O)c3cn(C(C)C)cn3)CC2)c(OC)c1,797
8,COCc1cn(C2CN(C(=O)c3cnc(C)cn3)C2)nn1,592
9,Cc1nn(C(C)C)c(C)c1S(=O)(=O)N1CCN(C(=O)c2cncc(Br)c2)CC1,762
10,COc1ccc(Nc2ncccc2S(N)(=O)=O)cc1Cl,801
11,Cn1c(=O)c(=O)n(C)c2cc(N3CCOCC3)c(NC(=O)c3ccco3)cc21,663
12,O=C(C1=CN(c2ccc3c(c2)OCCO3)c2cc(Cl)ccc2S1(=O)=O)N1CCCC1,838
13,O=C(C1CC=CCC1)N1CCCC(COCc2ccccc2)C1 (configuration not stated),979
14,CCCN(C)CC1(O)CCC2(CCN(C(=O)C3CCCC3)CC2)CC1,584
15,Cc1cc(N2CCCC2)nc(N2CCN(S(=O)(=O)c3ccc(Br)cc3)CC2)n1,820
16,Cc1nc(N2CCN(C(=O)Nc3cccc(C(F)(F)F)c3)CC2)cc(-n2cccn2)n1,947
17,O=C(Nc1ccc2c(c1)OCCO2)C1CCCN(c2ncnc3c2nc2n3CCCCC2)C1 (configuration not stated),750
18,CCN1CCCn2cc(S(=O)(=O)N3CCN(c4ccccc4)CC3)cc2C1=O,813
19,CC(C)CN1CCC(N2CC(COc3ccccc3)C3(CCOCC3)C2)CC1 (configuration not stated),574
20,Cc1ccc(NC(=O)CSc2nc(=O)n(CCN(C)C)c3c2CCC3)cc1,636
21,CCc1c(C(=O)O)nnn1Cc1ccccc1,701
22,CCC1Oc2ccc(S(=O)(=O)N3CCC(C(=O)NC4CCCCCCC4)CC3)cc2NC1=O (configuration not stated),977
23,Cc1cc(C(=O)N2CCOCC2)c2cccc(Cl)c2n1,682
24,COc1cc(NC(=O)N2CCC(n3c(CC(C)C)nc4cccnc43)CC2)cc(OC)c1OC,662
25,c1ccc2c(N3CCNCC3)cccc2c1,690
26,CCc1noc(-c2cccn2Cc2cc(F)cc(F)c2)n1,1160
27,Cc1cccc(Sc2nccnc2N2CCC(C(=O)NC3CCCC3)CC2)c1,1040
28,NC(=O)OCCCc1ccccc1,817
29,COCCCNS(=O)(=O)c1cc(-c2nc(C)cs2)n(CC(=O)N2CCCCC2)c1,824
30,CCn1cnc(S(=O)(=O)N2CCC(C(=O)N3CCN(c4cccc(Cl)c4)CC3)CC2)c1,825

# Continued, values first:
row,RP-LC retention time [s],Structure (SMILES)
1,567,O=C(CCc1c(-c2ccc(Br)cc2)nc2ccccn12)NCCN1CCCC1
2,936,CCn1c(=O)c2ccccc2n(Cc2nc(-c3cc(OC)c(OC)c(OC)c3)no2)c1=O
3,846,C=CCN1C(=O)COc2ccc(-c3nc(NC(=O)CC)sc3C)cc21
4,723,Brc1ccc(CSc2nnc3ccc(-c4cccnc4)nn23)cc1
5,992,CCn1c(=O)c2ccccc2n(Cc2nc(-c3cccc(OC)c3)no2)c1=O
6,654,COc1ccc(Nc2c(-c3ccc(N4CCOCC4)cc3)nc3ncccn23)cc1
7,914,CC(=O)c1ccc(N2CCN(C(=O)c3nnn4c3COC(c3ccc(F)cc3)C4)CC2)cc1 (configuration not stated)
8,666,O=C(Cc1cn2cc(F)ccc2n1)Nc1ccc(Cl)cc1Cl
9,1100,CCCOc1nc2ccccc2nc1N1CCCC(C(=O)NCc2ccco2)C1 (configuration not stated)
10,1150,CCc1ccc(S(=O)(=O)N2CCC(c3noc(-c4ccccc4C)n3)CC2)cc1
11,740,Cc1oc2c(c1C(=O)N(C)C)CN(S(=O)(=O)Cc1ccccc1)CC2
12,668,O=C(Nc1ccc2c(c1)OCCO2)c1cccc(N2CCNC(c3ccccc3)C2)n1 (configuration not stated)
13,677,Cc1cccc(-c2ncccc2CNS(=O)(=O)c2ccccc2)c1
14,1380,Cc1c2c(nn1-c1ccc(SCc3ccccc3Cl)nn1)CCC2
15,863,CCn1cnc2ccc(-c3noc(-c4ccc(Cl)cc4)n3)cc21
16,594,O=C1C=C(Nc2cccnc2)c2ccccc2C1=O
17,642,Cc1noc(C2CN(C(=O)Cc3noc4ccccc34)C2)n1
18,839,CCC1Oc2ccc(S(=O)(=O)N3CCC(C(=O)NCc4ccc(OC)cc4)CC3)cc2NC1=O (configuration not stated)
19,913,O=C(c1cccc(Cl)c1)N1CCN(C(=O)c2nnn3c2COC(c2ccc(F)cc2)C3)CC1 (configuration not stated)

row,RP-LC retention time [s],Structure (SMILES)
1,955,Cc1ccc(C(=O)NC(C)CCc2ccccc2)cc1NC(=O)C1=CSCCO1 (configuration not stated)
2,680,Nc1nc(SCc2ccccc2Cl)c2[nH]cnc2n1
3,917,COc1ccc(OCc2nnc3sc(-c4cc(CC(C)C)[nH]n4)nn23)cc1
4,898,O=C(Nc1ccc(OCc2nnc(-c3ccccc3)o2)cc1)c1ccc(Cl)nc1
5,675,Cc1ccc(NC(=O)Cn2cnc(C)c(C)c2=O)cc1
6,807,CC(Cc1ccco1)NC(=O)C1CCN(S(=O)(=O)c2ccc3c(c2)sc(=O)n3C)CC1 (configuration not stated)
7,902,CCn1cnc(S(=O)(=O)N2CCC(C(=O)NCc3ccccc3OC)CC2)c1
8,791,CCOc1ccc(CC(=O)N2C[C@@H]3C[C@H]2C[C@@H]3NS(=O)(=O)c2cccs2)cc1
9,644,CC(NC(=O)C1CCN(CCc2cn(C)c3ncccc23)CC1)c1ccccc1 (configuration not stated)
10,797,Cc1ccccc1C(=O)Nc1nc(-c2ccc3c(c2)NC(=O)C(C)O3)c(C)s1 (configuration not stated)
11,1050,Cc1cc(C)cc(NC(=O)Cn2c(C)nc3c(sc4nc(-c5ccccc5)ccc43)c2=O)c1
12,587,CNC(=O)[C@@H]1CCCN1C(=O)c1ccccc1
13,632,Cc1c(CCC(=O)NCc2cccnc2)c(=O)n2nc(-c3ccc(Cl)cc3)nc2n1C
14,831,Cc1cccc(CNC(=O)CN2CCN(Cc3ccc(F)cc3)C2=O)c1
15,948,COc1ccc(-c2ncc3c(n2)CCN(C(=O)Nc2ccccc2Cl)C3)cc1
16,953,Cc1ccc(N2C=C(C(=O)N3CCCCC3)S(=O)(=O)c3ccccc32)cc1C
17,838,Cc1nc(-c2ccc(F)cc2)sc1C(=O)N[C@@H](Cc1c[nH]c2ccccc12)C(=O)O
18,612,COc1ccc(/C=C\c2onc(C)c2NC(C)=O)cc1S(=O)(=O)N1CCN(c2ccccn2)CC1
